This note sets out measurements from BindingDB's records for PubMed 7891350 (Parke-Davis Pharmaceutical Research, 1995).

For test [1], the target named is T1, Type-2 angiotensin II receptor (Rattus norvegicus, UniProt P35351).
T1 sequence (P35351 whole entry): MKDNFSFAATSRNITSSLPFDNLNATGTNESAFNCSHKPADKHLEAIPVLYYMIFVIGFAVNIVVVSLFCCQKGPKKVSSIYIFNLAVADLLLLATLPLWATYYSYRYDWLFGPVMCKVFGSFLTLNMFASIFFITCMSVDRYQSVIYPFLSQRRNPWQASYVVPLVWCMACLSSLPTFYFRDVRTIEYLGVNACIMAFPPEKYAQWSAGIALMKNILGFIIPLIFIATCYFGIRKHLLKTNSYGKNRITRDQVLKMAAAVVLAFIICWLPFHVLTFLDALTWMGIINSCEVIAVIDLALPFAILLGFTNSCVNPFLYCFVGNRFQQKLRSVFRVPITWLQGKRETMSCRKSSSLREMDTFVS

The target of test [2] is T2, Type-1 angiotensin II receptor A (Rattus norvegicus, UniProt P25095).
T2 sequence (P25095 whole entry): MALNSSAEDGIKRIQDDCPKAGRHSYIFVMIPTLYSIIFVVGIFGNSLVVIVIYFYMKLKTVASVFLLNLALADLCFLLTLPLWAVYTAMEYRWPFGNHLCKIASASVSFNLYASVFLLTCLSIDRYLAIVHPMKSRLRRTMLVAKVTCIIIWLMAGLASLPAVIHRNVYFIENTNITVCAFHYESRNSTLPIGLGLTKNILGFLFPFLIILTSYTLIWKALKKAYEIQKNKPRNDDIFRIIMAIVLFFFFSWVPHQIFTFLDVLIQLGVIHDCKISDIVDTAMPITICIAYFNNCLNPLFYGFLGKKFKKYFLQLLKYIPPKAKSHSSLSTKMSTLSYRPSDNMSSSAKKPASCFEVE

Molecules are shown by their SMILES.

`CCCc1nc(-n2cccc2C(=O)C(F)(F)F)c(C(=O)O)n1Cc1ccc(-c2ccccc2-c2nn[nH]n2)cc1` had an inhibitory constant (Ki) in test [1] of more than 10 µM.

Compound `CCCCc1ncc(/C=C(\Cc2cccs2)C(=O)O)n1Cc1ccc(C(=O)O)cc1` [(E)-3-[2-n-butyl-1-{(4-carboxyphenyl)methyl}-1H-imidazol-5-yl]-2-(2-thienyl)methyl-2-propenoic acid] returned a Ki in test [1] of more than 10 µM. Turning to `CCc1nc2c(C)cc(C)nc2n1-c1ccc(-c2ccccc2-c2nnn[nH]2)cc1` [CAS_123856], the Ki was 0.7 nM in test [2] and more than 10 µM in test [1].
